Series [1] relates to IL-10-/- mice with piroxicam induced colitis. As to the kind of experiment: Piroxicam induced colitis in IL-10-/- mice: body weight, histological score, colon length. It counts as in vivo, mouse. An excerpt:
IL-10^−/− mice spontaneously develop a chronic, T-cell mediated, transmural colitis that shares many features with human Crohn's disease. Based on this model, there have been several clinical trials using IL-10 treatment for IBD in human patients 13 However, due to the inconsistency in the development of spontaneous colitis in IL-10^−/− mice, Berg and his colleagues have described rapid development of colitis in IL-10^−/− mice treated with a nonsteroidal anti-inflammatory drug piroxicam (NSAID)^9. Accordingly, mice were treated with piroxicam, 200 mg/kg diet, for two weeks to induce colitis. Mice were administered ATL-801 for a week prior to treatment with piroxicam, and ATL-801 treatment was continued during piroxicam administration. Two weeks after the induction of colitis, mice were euthanized, and colonic tissue was analyzed.
Assessment of body weights, stool consistency, and the presence of occult/gross blood by a guaic test (Hemoccult Sensa; Beckman Coulter, Fullerton, Calif.) were performed daily for each mouse. Colitis was quantified with a clinical and histological score, as described by Cooper, et. al. Clinical score was based on weight loss, stool consistency, and fecal blood (score range 0-12). Histological scoring was performed based on three variables, extent of inflammatory infiltrate, mucosal ulcers and severity of crypt (score range 0-11). IL-10^−/− mouse colon histological scoring (ranging from 0 to 4) was performed as described by Berg, et. al. to assess intestinal lesions and their severity.

Series [2] addresses T1, A2b receptor (Homo sapiens, UniProt P29275).
T1 construct: endogenous in cells; host or cells: T84 cells
T1 sequence (P29275 1-332): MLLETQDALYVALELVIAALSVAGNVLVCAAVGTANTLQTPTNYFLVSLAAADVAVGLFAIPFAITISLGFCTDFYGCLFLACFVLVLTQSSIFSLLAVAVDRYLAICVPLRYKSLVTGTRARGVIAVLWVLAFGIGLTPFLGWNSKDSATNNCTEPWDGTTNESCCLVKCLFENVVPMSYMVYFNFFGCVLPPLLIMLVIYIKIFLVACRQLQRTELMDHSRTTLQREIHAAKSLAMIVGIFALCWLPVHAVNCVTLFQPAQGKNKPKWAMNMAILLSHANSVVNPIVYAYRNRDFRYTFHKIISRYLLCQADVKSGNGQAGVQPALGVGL
As to the kind of experiment: cAMP measurement in adenosine-stimulated T84 cells. As to conditions: T84 monolayers, adenosine 100 μM, ATL-801 100 μM; unstimulated 1.7±0.05, adenosine alone 4.7±0.66. It counts as cell-based. As for the experimental part: T84 cells were stimulated with adenosine (100 μM) or forskolin (10 μM) for 7 min, with or without ATL-801 (100 μM). Total cell lysates were processed in the presence of IBMX (phosphodiesterase inhibitor). cAMP levels were measured in whole cell lysates using a competitive cAMP immunoassay kit (Applied Biosystems, Bedford, Mass.) according to the manufacturer's instructions. Luminescence was read with a Luminoscan Ascent plate reader (Thermo Labsystems, Needham Heights, Mass.).

Series [3] deals with T2, A2b receptor (Mus musculus, UniProt Q60614).
T2 construct: Murine colonic mucosal stripping from the distal colon was mounted on Ussing chamber; from tissue; host or cells: mouse distal colon mucosa, stripped of external muscle
T2 sequence (Q60614 1-332): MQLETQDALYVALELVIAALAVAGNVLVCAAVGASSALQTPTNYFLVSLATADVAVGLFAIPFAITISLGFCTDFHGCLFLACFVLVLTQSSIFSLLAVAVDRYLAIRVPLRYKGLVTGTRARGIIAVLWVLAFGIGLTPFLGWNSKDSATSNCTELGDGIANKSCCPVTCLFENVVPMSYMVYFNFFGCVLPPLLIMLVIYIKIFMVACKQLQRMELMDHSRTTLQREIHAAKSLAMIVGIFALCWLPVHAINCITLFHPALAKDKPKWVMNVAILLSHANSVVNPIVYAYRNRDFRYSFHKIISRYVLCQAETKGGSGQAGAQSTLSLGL
As to the kind of experiment: Ussing chamber Isc (chloride secretion) in murine colonic mucosal stripping. As to conditions: mouse colonic mucosa. As to the method:
Electrophysiologic studies were performed as described previously Mice were euthanized by CO2/hypothermia. The colon was removed and opened along the mesenteric border. The colon was then stripped of its external muscle by blunt dissection. A of mucosa from distal colon was used for Using chamber studies. After a sustained baseline Isc, mucosal layers were stimulated with adenosine (100 μM) and forskolin (FSK 10 μM). Antagonist was added to both bathing solutions before stimulating with adenosine.

The test system of series [4] is colonic crypt epithelial cells. As to the kind of experiment: ki67 proliferation and caspase-3/TUNEL apoptosis staining of colonic crypts, DSS colitis. It counts as in vivo, mouse. As to the method: Apoptosis: Apoptotic cells were determined in colonic crypts of the mice that received ATL-801. Apoptotic cells were identified by fluorescent double staining using caspase-3 and terminal deoxyuridine nick-end labeling (TUNEL) as a secondary method to detect apoptosis. After deparaffinization and hydration, paraffin sections of colon were retrieved for antigens in a pressure cooker with sodium citrate (pH 6.0, 10 mM) for 10 min. After cooling, the sections were quenched in 3% H2O2 in methanol and then blocked with normal goat serum. Caspase-3 was detected with rabbit anti-cleaved-caspase-3 IgG overnight at 4° C. followed by a labeled streptavidin-biotin (LSAB) staining method consisting of successive application of secondary antibody-streptavidin, biotin-horseradish peroxidase, and cyanine-3 tyramide. TUNEL immunohistochemistry was performed using the in situ cell death detection kit, fluorescein, as described by the manufacturer (Roche Applied Science, Indianapolis, Ind.). For IL-10 model, frozen sections were used to stain cleaved caspase 3 and TUNEL. Nuclei were attained by Hoechst to count total crypt cell number. The apoptotic index for both morphologically defined apoptotic cells and fluorescent staining with caspase-3 was calculated as the number of apoptotic cells per crypt. […]

Consider `CCCn1c(=O)n(C2CC2)c(=O)c2[nH]c(-c3ccc(N(CC)C(=O)c4cccnc4)nc3)nc21` [ATL-801], for which the “histology, ATL-801 alone” value in series [1] (IL-10-/- mice treated with ATL-801 alone (data not shown)) is recorded as “normal histology”. The colon length in series [1] (IL-10-/- mice, ATL-801+piroxicam, piroxicam 7.0±0.25 cm) came out at 8.4±0.23 cm. In addition, the mean histological score in series [1] (IL-10-/- mice, piroxicam + ATL-801, score 0 to 4, piroxicam 2.8±1.0) came to 1.3±0.3. Moreover, the “body weight change (Δ)” value in series [1] (IL-10-/- mice, piroxicam+ATL-801 10 mg/Kg diet, FIG. 8A percent body weight change, piroxicam Δ−2.05±0.7) is “+0.2±0.5”. The “adenosine mediated cAMP levels, adenosine+ATL-801” value in series [2] was 0.2±0.06 pmoles/10^6 cells. Further, in series [3] (ATL-801 100 μM before adenosine 100 μM, adenosine alone 7.9 μA), the “ΔIsc, ATL-801+Adenosine” value was 1.9 μA. Moreover, the “ΔIsc, ATL-801+FSK” value in series [3] (ATL-801 100 μM, forskolin 10 μM) was 10 μA. Moreover, the “proliferation index, ki67 positive cells” value in series [4] (DSS+ATL, average positive cells per crypt, control 18.67±1.62, DSS 5.95±0.31) is 15.13±0.44. In series [4] (DSS+ATL-801, DSS 16.3±2.3), the “TUNEL positive cells out of total number of cells counted in each crypt” value stood at 3.7±0.7.

The values are drawn from patent US8193200B2, “Antagonists of A2B adenosine receptors for treatment of inflammatory bowel disease” (University of Virginia Patent Foundation, priority 2007, dated 2012).
